Test results reported in the supplement of paper PMC10307832.

Columns and labels:
Experiment in all cases: relative viability (nuclei count vs DMSO), 5 days (fraction); higher = more cells survive
Elesclomol + Lapatinib = compound: CN(NC(=O)CC(=O)NN(C)C(=S)c1ccccc1)C(=S)c1ccccc1 [Elesclomol] + CS(=O)(=O)CCNCc1ccc(-c2ccc3ncnc(Nc4ccc(OCc5cccc(F)c5)c(Cl)c4)c3c2)o1 [Lapatinib] (partner 2 µM)
In short: (§1)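 Relative viability is defined as nuclei in treated wells over nuclei in vehicle wells. Duplicate plates were run and medians reported. Lung cancer cell lines in 1536-well plates were dosed by pin tool one day after seeding, with one drug or with a fixed anchor-drug dose plus five library-drug doses (not always all listed) in √10 steps, and nuclei were counted after 5 days.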

Elesclomol + Navitoclax = compound: CN(NC(=O)CC(=O)NN(C)C(=S)c1ccccc1)C(=S)c1ccccc1 [Elesclomol] + CC1(C)CCC(c2ccc(Cl)cc2)=C(CN2CCN(c3ccc(C(=O)NS(=O)(=O)c4ccc(N[C@H](CCN5CCOCC5)CSc5ccccc5)c(S(=O)(=O)C(F)(F)F)c4)cc3)CC2)C1 [Navitoclax] (partner 0.5 µM)
In short: as §1

Elesclomol + Dasatinib = compound: CN(NC(=O)CC(=O)NN(C)C(=S)c1ccccc1)C(=S)c1ccccc1 [Elesclomol] + Cc1nc(Nc2ncc(C(=O)Nc3c(C)cccc3Cl)s2)cc(N2CCN(CCO)CC2)n1 [Dasatinib] (partner 0.075 µM)
In short: as §1

Elesclomol + Vorinostat = compound: CN(NC(=O)CC(=O)NN(C)C(=S)c1ccccc1)C(=S)c1ccccc1 [Elesclomol] + O=C(CCCCCCC(=O)Nc1ccccc1)NO [Vorinostat] (partner 1 µM)
In short: as §1

Elesclomol = compound: CN(NC(=O)CC(=O)NN(C)C(=S)c1ccccc1)C(=S)c1ccccc1 [Elesclomol]
In short: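 Lung cancer cell lines in 1536-well plates were exposed by pinning to five library-drug doses (not always all listed) √10 apart, following an overnight hold at 37 °C. MetaXpress counted Hoechst-stained nuclei from 4× images taken after 5 days without medium change. Viability is the median ratio of treated-well to vehicle-well nuclei across plates. Plates required control CV below 25% and at least one doubling.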

Cell Line	relative viability (Elesclomol + Lapatinib; first compound 0.003162 µM)	relative viability (Elesclomol + Lapatinib; first compound 0.01 µM)	relative viability (Elesclomol + Lapatinib; first compound 0.03162 µM)	relative viability (Elesclomol + Lapatinib; first compound 0.1 µM)	relative viability (Elesclomol + Navitoclax; first compound 0.003162 µM)	relative viability (Elesclomol + Navitoclax; first compound 0.01 µM)	relative viability (Elesclomol + Navitoclax; first compound 0.03162 µM)	relative viability (Elesclomol + Navitoclax; first compound 0.1 µM)	relative viability (Elesclomol + Dasatinib; first compound 0.003162 µM)	relative viability (Elesclomol + Dasatinib; first compound 0.01 µM)	relative viability (Elesclomol + Dasatinib; first compound 0.03162 µM)	relative viability (Elesclomol + Dasatinib; first compound 0.1 µM)	relative viability (Elesclomol + Vorinostat; first compound 0.003162 µM)	relative viability (Elesclomol + Vorinostat; first compound 0.01 µM)	relative viability (Elesclomol + Vorinostat; first compound 0.03162 µM)	relative viability (Elesclomol + Vorinostat; first compound 0.1 µM)	relative viability (Elesclomol; 0.003162 µM)	relative viability (Elesclomol; 0.01 µM)	relative viability (Elesclomol; 0.03162 µM)	relative viability (Elesclomol; 0.1 µM)
NCI-H2347	0.876	0.776	0.902	0.761	0.809	0.668	0.905	0.299	0.29	0.373	0.287	0.185	0.572	0.527	0.471	0.303	1.01	0.918	0.858	0.616
HCC-827	0.178	0.206	0.194	0.188	1.02	0.995	1	0.756	0.253	0.217	0.276	0.425	0.759	0.777	0.742	0.767	1.05	1.02	1.02	1
NCI-H1666	0.556	0.326	0.229	0.153	0.825	0.299	0.227	0.15	0.9	0.585	0.412	0.378	1.05	0.91	0.836	0.714	1.01	0.933	0.755	0.542
201T	1.04	1.08	1.07	0.985	1.16	1.16	1.23	1.16	0.535	0.587	0.543	0.236	0.968	0.995	0.869	0.68	0.953	0.884	0.86	0.61
PC-3 [JPC-3]	0.43	0.386	0.519	0.405	0.866	0.682	0.794	0.7	0.913	0.914	1.05	0.647	0.779	0.489	0.466	0.372	1.06	0.892	1.04	0.665
NCI-H2405	1.16	0.292	0.291	0.289	0.619	0.178	0.137	0.132	0.227	0.231	0.222	0.203	0.933	0.415	0.314	0.276	1.08	0.581	0.362	0.384
LXF-289	0.925	0.881	0.876	0.677	0.851	0.924	0.875	0.575	0.243	0.176	0.202	0.113	0.79	0.779	0.706	0.483	1.03	0.956	0.95	0.772
EKVX	0.204	0.204	0.16	0.141	0.875	0.658	0.289	0.205	0.474	0.315	0.226	0.202	0.659	0.336	0.241	0.253	0.912	0.662	0.379	0.203
A-427	0.933	1.02	1.05	0.52	0.904	0.827	1	0.499	0.661	0.582	0.358	0.127	0.823	0.755	0.192	0.15	0.963	0.554	0.529	0.18
SK-MES-1	0.563	0.446	0.429	0.325	1.28	0.97	1.03	0.385	0.413	0.25	0.187	0.148	1.13	0.481	0.425	0.284	1.05	0.76	0.794	0.489
LCLC-97TM1	0.575	0.299	0.687	0.0906	0.368	0.298	0.253	0.115	0.854	0.765	0.798	0.264	0.724	0.283	0.707	0.0661	0.735	0.844	0.738	0.0887
NCI-H2170	0.273	0.285	0.259	0.257	0.628	0.475	0.493	0.245	0.546	0.539	0.484	0.43	0.808	0.683	0.777	0.408	0.967	0.938	0.986	0.657
NCI-H1993	0.753	0.809	0.697	0.563	0.934	1.19	0.63	0.508	0.577	0.508	0.494	0.453	0.897	0.817	0.469	0.288	0.978	0.871	0.782	0.543
NCI-H460	0.755	0.229	0.0103	0.0101	0.997	0.379	0.0164	0.0095	0.516	0.422	0.0534	0.0171	0.712	0.508	0.275	0.018	1.01	0.825	0.557	0.0845
NCI-H1975	0.84	0.571	0.164	0.1	1	1.1	0.209	0.12	0.344	0.223	0.163	0.0599	0.765	0.648	0.183	0.12	0.988	0.732	0.278	0.181
RERF-LC-KJ	0.909	0.756	0.398	0.299	0.47	0.288	0.293	0.191	0.37	0.326	0.255	0.157	0.445	0.406	0.473	0.256	0.816	0.493	0.316	0.311

Cell Line	relative viability (Elesclomol + Lapatinib; first compound 0.003162 µM)	relative viability (Elesclomol + Lapatinib; first compound 0.01 µM)	relative viability (Elesclomol + Lapatinib; first compound 0.03162 µM)	relative viability (Elesclomol + Lapatinib; first compound 0.1 µM)	relative viability (Elesclomol + Navitoclax; first compound 0.003162 µM)	relative viability (Elesclomol + Navitoclax; first compound 0.01 µM)	relative viability (Elesclomol + Navitoclax; first compound 0.03162 µM)	relative viability (Elesclomol + Navitoclax; first compound 0.1 µM)	relative viability (Elesclomol + Dasatinib; first compound 0.003162 µM)	relative viability (Elesclomol + Dasatinib; first compound 0.01 µM)	relative viability (Elesclomol + Dasatinib; first compound 0.03162 µM)	relative viability (Elesclomol + Dasatinib; first compound 0.1 µM)	relative viability (Elesclomol + Vorinostat; first compound 0.003162 µM)	relative viability (Elesclomol + Vorinostat; first compound 0.01 µM)	relative viability (Elesclomol + Vorinostat; first compound 0.03162 µM)	relative viability (Elesclomol + Vorinostat; first compound 0.1 µM)	relative viability (Elesclomol; 0.003162 µM)	relative viability (Elesclomol; 0.01 µM)	relative viability (Elesclomol; 0.03162 µM)	relative viability (Elesclomol; 0.1 µM)
NCI-H322M	0.563		0.624	0.399	1.27		1.06	0.858	0.251	0.206	0.123	0.0962	0.72	0.42	0.289	0.191	0.893	0.29	0.363	0.266
NCI-H1651	0.715	0.415	0.112	0.0857	0.971	0.525	0.137	0.0728	0.343	0.258	0.115	0.0916	0.557	0.527	0.519	0.434	0.903	0.954	0.612	0.369
HARA	0.679	0.715	0.756	0.186	1.16	1.17	0.884	0.267	0.244	0.312	0.283	0.0991	0.607	0.542	0.616	0.163	0.883	0.879	0.919	0.293
H3255	0.246	0.265	0.207	0.232	0.629	0.457	0.171	0.128	0.387	0.396	0.274	0.222	0.843	0.62	0.426	0.44	0.879	0.785	0.566	0.442
CAL-12T	0.529	0.484	0.103	0.0805	1	0.243	0.123	0.0625	0.282	0.117	0.0442	0.0555	0.66	0.245	0.101	0.0721	0.939	0.442	0.269	0.0778
NCI-H1437	0.637	0.45	0.346	0.265	1.02	0.67	0.474	0.455	0.246	0.18	0.116	0.128	0.74	0.411	0.322	0.334	0.879	0.635	0.504	0.47
HOP-62	1.17	0.872	0.811	0.251	0.904	0.553	0.647	0.302	0.678	0.638	0.458	0.213	0.659	0.469	0.477	0.136	1.01	0.83	0.89	0.299
EPLC-272H	0.873		1.04	0.119	1.1		1.03	0.164	0.397		0.405	0.059	0.178	0.0788	0.133	0.129	0.876	0.514	0.534	0.128
COR-L 105	0.341	0.291	0.283	0.246	0.682	0.427	0.421	0.236	0.303	0.248	0.21	0.079	1	0.57	0.361	0.336	0.85	0.472	0.344	0.221
HCC-366	1.07	1.06	0.563	0.015	1.06	1.07	1.02	0.137	0.596	0.624	0.542	0.029	0.371	0.228	0.173	0.0207	1.04	1.08	0.924	0.202
NCI-H2009	0.841	0.178	0.136	0.107	1.17	0.567	0.277	0.11	0.263	0.126	0.112	0.0747	0.679	0.279	0.162	0.0886	0.889	0.416	0.164	0.124
NCI-H23	1.12		0.799	0.139	0.799		0.761	0.144	0.823	0.725	0.743	0.171	0.559	0.385	0.318	0.0919	1	0.566	0.786	0.128
NCI-H727	0.591	0.365	0.165	0.0475	0.368	0.213	0.109	0.0643	0.319	0.242	0.128	0.0864	1.14	1.18	1.03	0.641	1.04	0.699	0.494	0.301
NCI-H1355	1.05	0.786	0.657	0.222	1.03	0.705	0.469	0.14	0.736	0.639	0.396	0.178	0.617	0.524	0.418	0.213	1.02	0.685	0.593	0.297
NCI-H1944	0.829	0.714	0.846	0.688	1.14	1.11	1.01	0.904	0.223	0.205	0.229	0.155	0.652	0.578	0.459	0.166	1.05	0.948	0.959	0.578
